Assay results: patent US20260014119A1, “EMOPAMIL-BINDING PROTEIN INHIBITORS AND USES THEREOF” (BIOGEN MA INC., priority 2022, published 2026)

target: T1, EBP (Homo sapiens, UniProt Q15125); test: EBP Functional Assay (EBP immunoaffinity LC-MS assay); type: biochemical; details: EBP enzyme from HEK293T cells; 30 min with inhibitor, then zymosterol-d5 at 37° C. for 4 h; percent conversion by LC-APCI MRM MS
T1 construct: HEK293T cells were utilized as the source of EBP enzyme; endogenous in cells; host or cells: HEK293T
T1 sequence (Q15125 whole entry): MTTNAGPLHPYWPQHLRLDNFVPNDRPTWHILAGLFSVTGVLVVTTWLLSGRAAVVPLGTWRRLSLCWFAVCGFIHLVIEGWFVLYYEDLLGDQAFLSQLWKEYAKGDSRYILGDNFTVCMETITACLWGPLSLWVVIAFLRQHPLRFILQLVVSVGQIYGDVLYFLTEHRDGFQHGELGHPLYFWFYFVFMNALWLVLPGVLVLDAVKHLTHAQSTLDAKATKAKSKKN
Method: The EBP immunoaffinity (IA) LC-MS assay measures the potency of small molecule inhibitors of EBP by quantifying their concentration-dependent changes in the enzyme's substrate and product using liquid chromatography atmospheric pressure chemical ionization multiple reaction monitoring mass spectrometry (LC-APCI MRM MS). HEK293T cells were utilized as the source of EBP enzyme. The enzyme was incubated with the small molecule inhibitors at variable concentrations for 30 min. Deuterated form of EBP substrate, zymosterol-d5 (Avanti Polar Lipids, Cat #700068P-1 mg), was then added and the plate was incubated at 37° C. for 4 h. Finally, the sterol isomers were extracted and injected to LC-APCI MRM MS. MRM transition used for the quantification for both zymosterol and […] (substrate and product of EBP enzymatic reaction, respectively) is 372.3-203.2, CE 30 and DP 80 in positive ion mode. Percent conversion of the zymosterol-d5 to dehydrolathosterol-d5 was used to derive IC50 curves. Tasin-1 (1′-[(4-Methoxyphenyl)sulfonyl]-4-methyl-1,4′-bipiperidine, CAS 792927-06-1) was used as the reference small molecule inhibitor.
Percent conversion versus the compound concentration data were fit to the following 4-parameter logistic model to generate IC50 curves: […]

SMILES	IC50
Cc1nc(C(F)(F)F)ccc1S(=O)(=O)N1C[C@H]2CN(C3CC4(COC4)C3)C[C@@H]2C1 (racemic) [Example 50, Rac-(3aR,6aR)-2-((2-methyl-6-(trifluoromethyl)pyridin-3-yl)sulfonyl)-5-(2-oxaspiro[3.3]heptan-6-yl)octahydropyrrolo[3,4-c]pyrrole]	< 0.1 µM
Cc1nc(C(F)(F)F)ccc1S(=O)(=O)N1C[C@H]2CN(CC3CCOCC3)C[C@@H]2C1 (racemic) [Example 51, Rac-(3aR,6aR)-2-((2-methyl-6-(trifluoromethyl)pyridin-3-yl)sulfonyl)-5-((tetrahydro-2H-pyran-4-yl)methyl)octahydropyrrolo[3,4-c]pyrrole]	< 0.1 µM
Cc1nc(C(F)(F)F)ccc1S(=O)(=O)N1C[C@H]2CN(CC3COC3)C[C@@H]2C1 (racemic) [Example 52, Rac-(3aR,6aR)-2-((2-methyl-6-(trifluoromethyl)pyridin-3-yl)sulfonyl)-5-(oxetan-3-ylmethyl)octahydropyrrolo[3,4-c]pyrrole]	> 0.5 µM
Cc1nc(C(F)(F)F)ccc1S(=O)(=O)N1C[C@H]2CN(CC34CCOC(C)(C3)C4)C[C@@H]2C1 (racemic) [Example 53, Rac-(3aR,6aR)-2-((1-methyl-2-oxabicyclo[3.1.1]heptan-5-yl)methyl)-5-((2-methyl-6-(trifluoromethyl)pyridin-3-yl)sulfonyl)octahydropyrrolo[3,4-c]pyrrole]	0.1 to 0.5 µM
Cc1nc(C(F)(F)F)ccc1S(=O)(=O)N1C[C@H]2CN(CC34COC(C)(C3)C4)C[C@@H]2C1 (racemic) [Example 54]	0.1 to 0.5 µM
Cc1nc(C(F)(F)F)ncc1S(=O)(=O)N1C[C@H]2CN(C3CCOCC3)C[C@@H]2C1 (racemic) [Example 57, Rac-(3aR,6aR)-2-((4-methyl-2-(trifluoromethyl)pyrimidin-5-yl)sulfonyl)-5-(tetrahydro-2H-pyran-4-yl)octahydropyrrolo[3,4-c]pyrrole]	0.1 to 0.5 µM
Cc1nc(C(F)(F)F)ncc1S(=O)(=O)N1C[C@H]2CN(C3CC4(COC4)C3)C[C@@H]2C1 (racemic) [Example 58, Rac-(3aR,6aR)-2-((4-methyl-2-(trifluoromethyl)pyrimidin-5-yl)sulfonyl)-5-(2-oxaspiro[3.3]heptan-6-yl)octahydropyrrolo[3,4-c]pyrrole]	0.1 to 0.5 µM
Cc1nc(C(F)(F)F)ncc1S(=O)(=O)N1C[C@H]2CN(CC3CCOCC3)C[C@@H]2C1 (racemic) [Example 59, Rac-(3aR,6aR)-2-((4-methyl-2-(trifluoromethyl)pyrimidin-5-yl)sulfonyl)-5-((tetrahydro-2H-pyran-4-yl)methyl)octahydropyrrolo[3,4-c]pyrrole]	0.1 to 0.5 µM
Cc1nc(C(F)(F)F)ccc1S(=O)(=O)N1C[C@@H]2CN(CC34COC(C)(C3)C4)C[C@H]2C1 (single isomer, unassigned) [Example 55]	0.1 to 0.5 µM
Cc1nc(C(F)(F)F)ccc1S(=O)(=O)N1C[C@H]2CN(CC34COC(C)(C3)C4)C[C@@H]2C1 (single isomer, unassigned) [Example 56]	0.1 to 0.5 µM
O=S(=O)(c1ccc(OC(F)F)cc1)N1C[C@H]2C[C@@H](NCC3CCOCC3)C[C@H]2C1 [Example 2, (3aR,5r,6aS)-2-((4-(Difluoromethoxy)phenyl)sulfonyl)-N-((tetrahydro-2H-pyran-4-yl)methyl)octahydrocyclopenta[c]pyrrol-5-amine]	0.1 to 0.5 µM
O=S(=O)(c1ccc(OC(F)F)cc1)N1C[C@H]2C[C@H](NCC3CCOCC3)C[C@H]2C1 [Example 8, (3aR,5s,6aS)-2-((4-(Difluoromethoxy)phenyl)sulfonyl)-N-((tetrahydro-2H-pyran-4-yl)methyl)octahydrocyclopenta[c]pyrrol-5-amine]	0.1 to 0.5 µM
Cn1nc(C2CC2)cc1S(=O)(=O)N1C[C@H]2C[C@H](NCC3CCOCC3)C[C@H]2C1 [Example 12, (3aR,5s,6aS)-2-((3-Cyclopropyl-1-methyl-1H-pyrazol-5-yl)sulfonyl)-N-((tetrahydro-2H-pyran-4-yl)methyl)octahydrocyclopenta[c]pyrrol-5-amine]	0.1 to 0.5 µM

Further lines, results first:

IC50	SMILES
0.1 to 0.5 µM	Cc1nc(C(F)(F)F)ccc1S(=O)(=O)N1C[C@@H]2CN(C3CCOCC3)C[C@H]2C1 (single isomer, unassigned) [Example 47]
0.1 to 0.5 µM	Cc1nc(C(F)(F)F)ccc1S(=O)(=O)N1C[C@H]2CN(C3CCOCC3)C[C@@H]2C1 (single isomer, unassigned) [Example 48]
< 0.1 µM	Cc1ccc(S(=O)(=O)N2C[C@H]3C[C@@H](NCC4CCOCC4)C[C@H]3C2)c(C)c1 [Example 1, (3aR,5r,6aS)-2-((2,4-Dimethylphenyl)sulfonyl)-N-((tetrahydro-2H-pyran-4-yl)methyl)octahydrocyclopenta[c]pyrrol-5-amine]
< 0.1 µM	Cc1ccc(S(=O)(=O)N2C[C@H]3C[C@H](N4CCC(C)CC4)C[C@H]3C2)c(C)c1 [Example 3, (3aR,5s,6aS)-2-((2,4-Dimethylphenyl)sulfonyl)-5-(4-methylpiperidin-1-yl)octahydrocyclopenta[c]pyrrole]
0.1 to 0.5 µM	CC1CCN([C@H]2C[C@@H]3CN(S(=O)(=O)c4ccc(OC(F)F)cc4)C[C@@H]3C2)CC1 [Example 4, (3aR,5s,6aS)-2-((4-(Difluoromethoxy)phenyl)sulfonyl)-5-(4-methylpiperidin-1-yl)octahydrocyclopenta[c]pyrrole]
< 0.1 µM	Cc1ccc(S(=O)(=O)N2C[C@H]3C[C@@H](N4CCC(C)CC4)C[C@H]3C2)c(C)c1 [Example 5, (3aR,5r,6aS)-2-((2,4-Dimethylphenyl)sulfonyl)-5-(4-methylpiperidin-1-yl)octahydrocyclopenta[c]pyrrole]
0.1 to 0.5 µM	CC1CCN([C@@H]2C[C@@H]3CN(S(=O)(=O)c4ccc(OC(F)F)cc4)C[C@@H]3C2)CC1 [Example 6, (3aR,5r,6aS)-2-((4-(Difluoromethoxy)phenyl)sulfonyl)-5-(4-methylpiperidin-1-yl)octahydrocyclopenta[c]pyrrole]
< 0.1 µM	Cc1ccc(S(=O)(=O)N2C[C@H]3C[C@H](NCC4CCOCC4)C[C@H]3C2)c(C)c1 [Example 7, (3aR,5s,6aS)-2-((2,4-Dimethylphenyl)sulfonyl)-N-((tetrahydro-2H-pyran-4-yl)methyl)octahydrocyclopenta[c]pyrrol-5-amine]
0.1 to 0.5 µM	COc1ncc(C)cc1S(=O)(=O)N1C[C@H]2C[C@H](NCC3CCOCC3)C[C@H]2C1 [Example 9, (3aR,5s,6aS)-2-((2-Methoxy-5-methylpyridin-3-yl)sulfonyl)-N-((tetrahydro-2H-pyran-4-yl)methyl)octahydrocyclopenta[c]pyrrol-5-amine]
> 0.5 µM	Cc1cc(C)c(S(=O)(=O)N2C[C@H]3C[C@H](NCC4CCOCC4)C[C@H]3C2)cn1 [Example 10, (3aR,5s,6aS)-2-((4,6-Dimethylpyridin-3-yl)sulfonyl)-N-((tetrahydro-2H-pyran-4-yl)methyl)octahydrocyclopenta[c]pyrrol-5-amine]
> 0.5 µM	O=S(=O)(c1ccc(OC(F)F)cc1)N1C[C@H]2C[C@H](N3CCOCC3)C[C@H]2C1 [Example 13, 4-((3aR,5r,6aS)-2-((4-(Difluoromethoxy)phenyl)sulfonyl)octahydrocyclopenta[c]pyrrol-5-yl)morpholine]
